In publication PMC9023740, “Mucin-Type O-Glycosylation Proximal to β-Secretase Cleavage Site Affects APP Processing and Aggregation Fate” (Frontiers in Chemistry, 2022):

What was measured:
[1] = target: T1, Aβ40 (Homo sapiens, UniProt P05067); test: ThT aggregation kinetics assay of Aβ40 with APP (glyco)peptides; conditions: 50 mM phosphate buffer pH 7.4, 20 µM ThT, 37°C
T1 construct: Aβ40 peptide was synthesized on a PS3 solid phase peptide synthesizer; made in house; host or cells: chemical solid-phase peptide synthesis (Fmoc), no expression host
Procedure: Lyophilized peptide powder was dissolved in aqueous NaOH solution (2 mM), and the pH was adjusted to ∼11 by using 100 mM NaOH solution. The solution was sonicated for 1 h in an ice−water bath and then filtered through a 0.22 μm filter (Millipore) and kept on ice before use. The concentration of the peptide solution was determined by using the tyrosine UV absorbance at 280 nm (ε = 1280 M^−1 cm^−1).
The aggregation kinetics of Aβ40 in the absence and presence of APP (glyco)peptides was performed using ThT binding assay. The monomerized Aβ40 peptide solution was diluted to a final concentration of 10 µM in 50 mM phosphate buffer (pH 7.4) and 20 µM ThT dye. For the co-incubation assays with APP (glyco)peptides, APP stock solutions of 120 µM were added to the prepared Aβ40 for final (glyco) peptide concentrations of 10 µM or 50 µM and Aβ40 concentration of 10 µM in 50 mM phosphate buffer (pH 7.4) with 20 µM ThT dye. […] The plate was sealed with a microplate cover and loaded into a Gemini SpectraMax EM fluorescence plate reader (Molecular Devices, Sunnyvale, CA) and incubated at 37°C. The ThT fluorescence was measured from the bottom of the plate at 10 min intervals, with 5 s of shaking, and with an excitation and emission wavelengths of 440 and 480 nm, respectively. […]
°C. ThT fluorescence was measured in 10 minute intervals.

[2] = CD spectroscopy, secondary structure content by BeStSel; format: physicochemical; conditions: CD, BeStSel, 0.065 mg/ml, 25°C
Procedure: All (glyco)peptides were analyzed for their secondary structure using circular dichroism (CD) spectroscopy on a Jasco-810 spectropolarimeter (Jasco, Easton, MD) in three solvent systems: water, 10 mM sodium phosphate buffer (pH 7.4), and 50% trifluoroethanol (TFE) in water (v/v) mixture. The CD spectra were recorded using a quartz cell of 1 mm optical path length over a wavelength range of […] with a scanning speed of 100 nm/min and a response time of 4 s at 25°C. A concentration of 0.065 mg/ml, determined using the analytical RP-HPLC method, gave the […] signal-to-noise ratio for all (glyco)peptides. All spectra were baseline-corrected to account for the signal contribution from solvent and then converted into molar ellipticity (deg cm^2 dmol^−1) ([Sreerama and Woody, 2000]). Lastly, the percentages of all secondary structures were determined using the BeStSel method ([Micsonai et al., 2018]; [Singh et al., 2021]).
To study the role of O-glycosylation on the conformation of APP glycopeptides, circular dichroism (CD) spectroscopy was used to probe the secondary structure in three different solvents, water, sodium phosphate buffer (10 mM, pH 7.4), and 50% trifluoroethanol (TFE) in water (v/v) (Figure 1). The spectra were further analysed for secondary structure estimations by Beta Structure Selection (BeStSel) method, specifically designed for the analysis of beta sheet-rich proteins (Table 2) ([Micsonai et al., 2015], [2018]).

[3] = Analytical RP-HPLC retention time, read as hydrophobicity/hydrophilicity; format: physicochemical; conditions: C18 (Phenomenex Aeris Peptide C18 150 x 4.6 mm, 0.8 ml/min), 0.1% TFA water/acetonitrile, 0-60% B over 30 min, 214 nm, Supplementary S2-S9
Procedure: Purification of all (glyco)peptides and their corresponding analyses were performed on a 1,260 Agilent Infinity system. The analytical RP-HPLC method uses a Phenomenex Aeris Peptide C18 column (150 mm × 4.6 mm, 3.6 μm, 100 Å) at 0.8 ml/min flow rate or a Vydac Denali C18 column (250 mm × 4.6 mm, 5 μm, 120Å) at 1 ml/min flow rate, with 0.1% TFA in water (A) and 0.1% TFA in acetonitrile (B) as the eluents. The elution gradient for analytical RP-HPLC purification was 0–60% B over 30 min. The preparative RP-HPLC method uses the Grace Vydac monomeric C18 column (250 mm × 22 mm, 15–20 μm, 300Å) at 10 ml/min flow rate, with 0.1% TFA in water (A) and 0.1% TFA in acetonitrile (B) as the eluents. The elution gradient for preparative RP-HPLC purification was 0–50% over 110 min. The (glyco)peptides were detected at 214 nm by using a UV-Vis detector (Agilent 1,260 Infinity DAD). Purified (glyco)peptides were characterized by matrix-assisted laser desorption ionization time-of-flight mass spectrometry (MALDI-TOF MS) with a Voyager-DE STR system or a Bruker Microflex system, using α-cyano-4-hydroxycinnamic acid as matrix.
Automated solid-phase peptide synthesis (SPPS) approach on Tentagel S RAM resin was used to assemble the APP (glyco)peptides. […]

[4] = target: T2, Recombinant human BACE-1 (rhBACE-1) (Homo sapiens, UniProt P56817); test: Proteolytic cleavage of APP (glyco)peptides by BACE-1, RP-HPLC peak integration; format: biochemical; conditions: 100 μM substrate, 50 nM rhBACE-1, 0.1 M sodium acetate pH 4.0, 24 h, 37°C, dark; RP-HPLC peak integration at 214 nm, averaged from two injections, SD <5%
T2 construct: purchased R&D Systems #ES004 and #931-AS, respectively (so in the source)
Procedure: All APP-based substrates were prepared as 10 mM stocks in DMSO. Before proteolysis, the activity of BACE-1 was verified by the reaction with the fluorogenic BACE-1substrate Mca-[…](Dnp)RR-NH2 ([Koike et al., 1999]) as per the manufacturer’s instructions. For the proteolysis assay, APP-based substrates were diluted in BACE-1 activity buffer (0.1 M sodium acetate, pH 4.0) to the final assay concentration of 100 μM. BACE-1 was diluted to 50 nM final concentration. Reactions were incubated for 24 h at 37°C in the dark. After the incubation period, the enzyme cleavage solutions containing APP-based substrates and BACE-1 were analyzed using the analytical RP-HPLC method on the Aeris C18 column with 0.1% TFA in water (A) and 0.1% TFA in acetonitrile (B) as eluents and 0–60% B as the elution gradient over 30 min with a flow rate of 0.8 ml/min, and detection at 214 nm or the Vydac Denali C18 column with 0.1% TFA in water (A) and 0.1% TFA in acetonitrile (B) as eluents and 0–60% B as the elution gradient over 30 min with a flow rate of 1 ml/min, and detection at 214 nm. The identity of intact and cleaved (N- and C-terminal) fragments of (glyco)peptides in the absence and presence of BACE-1 (β-secretase) was confirmed by MALDI-TOF and their percentages were evaluated by the integration of the RP-HPLC peaks (averaged from two injections).
Glycosylation can alter substrate recognition and impact enzyme activity in either a positive (enhancing) or negative (inhibiting) manner ([Goettig, 2016]; [Goth et al., 2018]). The mucin-type O-linked glycosylation of a protein may not only affect its conformation but also affect its transport and localization in the cell ([Matsuura et al., 1989]; [Chen et al., 2002]). Proteases are highly regulated by post-translational modifications and drive fate, localization, and activity of many proteins ([Bond, 2019]). Certain mutations can also affect the subcellular localization of the cleavage event by crucial proteases and mediate a different cellular mechanism for the protein ([Haass et al., 1995]). […] Therefore, similar enzyme cleavage assays with BACE-1 were set up to explore the effect of the Swedish mutation, length of the amino acid sequence, glycan position and valency on the proteolytic susceptibility of 3–12. BACE1 produced two fragments upon cleavage of (glyco)peptides, for which yields were determined after 24 h treatment. The yields of intact peptide and fragments were evaluated by the RP-HPLC peaks integration (Table 3, and the Supplementary Material S20–S32).
3. Enzyme cleavage assays with APP (glyco)peptides 3-12 by RP-HPLC and MALDI-TOF MS
For the BACE1 enzyme cleavage assay, APP-based (glyco)peptide substrates were diluted in BACE1 activity buffer and incubated with BACE1 for 24 h at 37 °C in the dark. After the incubation period, the enzyme cleavage solutions containing APP-based (glyco)peptide substrates and BACE1 were analyzed using analytical RP-HPLC.
RP-HPLC gradient on Phenomenex Aeris Peptide C18 column (150 x 4.6 mm, 3.6 µm, 100Å):
Eluents were 0.1% TFA in water (A) and 0.1% TFA in acetonitrile (B). The elution gradient was 0-60%B in 30 minutes with a flow rate of 0.8 mL/min. Detection was at λ = 214 nm.
S*/T*= Ser(-α-GalNAc) 1/Thr(-α-GalNAc) 2
(a) APP665-680, 3 in activity buffer
(b) APP665-680 (3) + BACE1 in activity buffer […]

[5] = (B) 10 mM sodium phosphate buffer, pH 7.4

T2 sequence (P56817 46-457 limits assumed): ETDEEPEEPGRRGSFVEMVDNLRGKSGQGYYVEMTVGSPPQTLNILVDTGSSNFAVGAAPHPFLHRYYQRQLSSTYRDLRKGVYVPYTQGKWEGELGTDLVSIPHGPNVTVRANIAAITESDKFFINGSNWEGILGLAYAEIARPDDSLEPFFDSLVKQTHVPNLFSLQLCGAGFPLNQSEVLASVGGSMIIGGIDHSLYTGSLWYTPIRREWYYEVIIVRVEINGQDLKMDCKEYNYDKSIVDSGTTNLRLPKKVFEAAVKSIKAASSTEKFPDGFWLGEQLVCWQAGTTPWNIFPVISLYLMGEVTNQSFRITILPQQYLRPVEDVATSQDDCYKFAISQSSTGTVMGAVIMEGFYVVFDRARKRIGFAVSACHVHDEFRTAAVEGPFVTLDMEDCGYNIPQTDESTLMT
T1 sequence (P05067 672-711 limits assumed): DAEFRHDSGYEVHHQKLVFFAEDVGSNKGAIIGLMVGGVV

Compound: CC(=O)N[C@H]1C(O)O[C@H](CO)[C@H](O)[C@@H]1O (mixture of isomers) [GalNAc, N-acetylgalactosamine]
- Δt50 (t50 with additive - Aβ40 t50) ([1]; additive 10 and 50 µM, Aβ40 10 µM): < 0.5 h

Compound: IKT*EEISEVKM∼DAEFRHDSG [compound 8, native APP 661-680 glycopeptide with O-GalNAc on Thr^663]
- RC (%) random coil ([2]; (A) water): 87.4%
- α-H (%) α-helix ([2]; (A) water): 1.4%
- β-AP (%) anti-parallel β-sheet ([2]; (A) water): 5.4%
- β-P (%) parallel β-sheet ([2]; (A) water): 0.0%
- β-T (%) β-turn ([2]; (A) water): 5.7%
- RC (%) random coil [2, 5]: 30.4%
- α-H (%) α-helix [2, 5]: 8.8%
- β-AP (%) anti-parallel β-sheet [2, 5]: 42.6%
- β-P (%) parallel β-sheet [2, 5]: 0.0%
- β-T (%) β-turn [2, 5]: 18.3%
- RC (%) random coil ([2]; (C) TFE/water = 1:1 (v/v)): 8.3%
- α-H (%) α-helix ([2]; (C) TFE/water = 1:1 (v/v)): 85.7%
- β-AP (%) anti-parallel β-sheet ([2]; (C) TFE/water = 1:1 (v/v)): 0.0%
- β-P (%) parallel β-sheet ([2]; (C) TFE/water = 1:1 (v/v)): 0.0%
- β-T (%) β-turn ([2]; (C) TFE/water = 1:1 (v/v)): 6.0%
- RP-HPLC t R [3]: 14.4 min
- BACE-1 activity, Cleaved (%) [4]: 8.46%
- BACE-1 activity, Recovered (%) [4]: 91.5%

Compound: Aβ40: amyloid-β 40 peptide made by Fmoc SPPS, model peptide for studying protein aggregation
- half time (t 50) of the growth phase of Aβ40 amyloidogenesis ([1]; Aβ40 10 μM alone, triplicate): approximately 8 h
